{
  "source": "ChEMBL document CHEMBL1201862",
  "about": "“PubChem BioAssay data set” (2004)",
  "assay_in_all_cases": "NCI anticancer screen, dose series, 48 h",
  "key": {"[1]": {"system": "DMS-273"}, "[2]": {"system": "MDA-MB-231"}, "[3]": {"system": "M14"}, "[4]": {"system": "MDA-N"}, "[5]": {"system": "Hs-578T"}, "[6]": {"system": "SR"}, "[7]": {"system": "LXFL 529"}},
  "note": "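1) Cells in 96-well plates. 2) Compound, 48 h, 5 concentrations. 3) Linear interpolation between surrounding doses. 4) Unreached endpoint = highest concentration. Here, GI50 denotes the concentration required for 50% inhibition of growth.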 Active and inactive are the calls of the source. No stated cut-off is given here; in the data, active = GI50 up to about 1.1 µM and inactive = higher.",
  "data": [
    {"molecule": "CSc1nc(SC)c2cnn(CC3CO3)c2n1", "note": "(stereo not drawn)", "values": [
      {"measurement": "GI50", "setting": "[1]", "result": "22.8 µM (inactive)"}
    ]},
    {"molecule": "Cc1cc(N(CCOS(C)(=O)=O)CCOS(C)(=O)=O)ccc1C=O", "values": [
      {"measurement": "GI50", "setting": "[2]", "result": "28.5 µM (inactive)"},
      {"measurement": "GI50", "setting": "[3]", "result": "3.05 µM (inactive)"},
      {"measurement": "GI50", "setting": "[4]", "result": "11.4 µM (inactive)"},
      {"measurement": "GI50", "setting": "[5]", "result": "18.5 µM (inactive)"}
    ]},
    {"molecule": "CCOC(=O)C1=C(C)N(c2ccc(OC)cc2)C2(O)C=CC(O)=C3C(=O)c4ccccc4C(=O)C312", "note": "(stereo not drawn)", "values": [
      {"measurement": "GI50", "setting": "[2]", "result": "14.3 µM (inactive)"},
      {"measurement": "GI50", "setting": "[3]", "result": "9.75 µM (inactive)"},
      {"measurement": "GI50", "setting": "[4]", "result": "8.61 µM (inactive)"},
      {"measurement": "GI50", "setting": "[5]", "result": "5.47 µM (inactive)"}
    ]},
    {"molecule": "O=C(NN1C(=O)C(Cl)C1c1ccc([N+](=O)[O-])cc1)c1ccccc1O", "note": "(stereo not drawn)", "values": [
      {"measurement": "GI50", "setting": "[3]", "result": "> 100 µM (inactive)"},
      {"measurement": "GI50", "setting": "[6]", "result": "> 100 µM (inactive)"},
      {"measurement": "GI50", "setting": "[7]", "result": "> 100 µM (inactive)"}
    ]},
    {"molecule": "CC(=O)NC(c1nc2cc(C)c(C)cc2[nH]1)c1nc2cc(C)c(C)cc2[nH]1", "values": [
      {"measurement": "GI50", "setting": "[2]", "result": "26.1 µM (inactive)"},
      {"measurement": "GI50", "setting": "[3]", "result": "25.4 µM (inactive)"},
      {"measurement": "GI50", "setting": "[4]", "result": "19.1 µM (inactive)"},
      {"measurement": "GI50", "setting": "[5]", "result": "36.8 µM (inactive)"}
    ]},
    {"molecule": "COc1cccc2c1C(=O)c1c(O)c3c(c(O)c1C2=O)CC(O)(C(=O)CO)CC3OC1CC(N)C(I)C(C)O1", "note": "(stereo not drawn)", "values": [
      {"measurement": "GI50", "setting": "[1]", "result": "0.424 µM (active)"}
    ]},
    {"molecule": "CC(C)N1CSC(=S)N(Cc2ccccc2)C1", "values": [
      {"measurement": "GI50", "setting": "[6]", "result": "1.64 µM (inactive)"},
      {"measurement": "GI50", "setting": "[4]", "result": "2.42 µM (inactive)"},
      {"measurement": "GI50", "setting": "[5]", "result": "> 10 µM (inactive)"}
    ]},
    {"molecule": "c1ccc(C(c2ccccc2)[P+](c2ccccc2)(c2ccccc2)c2ccccc2)cc1", "values": [
      {"measurement": "GI50", "setting": "[1]", "result": "0.349 µM (active)"}
    ]},
    {"molecule": "Nc1nc2cc(COc3ccc(C(=O)O)cc3)ccc2nc1-c1ccccc1", "values": [
      {"measurement": "GI50", "setting": "[2]", "result": "> 10 µM (inactive)"},
      {"measurement": "GI50", "setting": "[3]", "result": "> 10 µM (inactive)"},
      {"measurement": "GI50", "setting": "[6]", "result": "> 10 µM (inactive)"},
      {"measurement": "GI50", "setting": "[4]", "result": "> 10 µM (inactive)"},
      {"measurement": "GI50", "setting": "[5]", "result": "> 10 µM (inactive)"}
    ]},
    {"molecule": "Nc1c(S(=O)(=O)O)cc2cc(S(=O)(=O)O)ccc2c1/N=N/c1ccc(-c2ccc(/N=N/c3c(N)c(S(=O)(=O)O)cc4cc(S(=O)(=O)O)ccc34)c(S(=O)(=O)O)c2)cc1", "values": [
      {"measurement": "GI50", "setting": "[1]", "result": "> 100 µM (inactive)"}
    ]},
    {"molecule": "COc1cc2cc3c4cc(OC)c(OC)cc4cc[n+]3cc2cc1OC", "values": [
      {"measurement": "GI50", "setting": "[1]", "result": "> 100 µM (inactive)"}
    ]}
  ]
}
